Laboratory results published in BindingDB's records for patent US20250282736 (ST. JUDE CHILDREN''S RESEARCH HOSPITAL, 2025).

Target: T1, PXR (Nuclear receptor subfamily 1 group I member 2) (Homo sapiens, UniProt O75469)
T1 sequence (O75469 whole entry): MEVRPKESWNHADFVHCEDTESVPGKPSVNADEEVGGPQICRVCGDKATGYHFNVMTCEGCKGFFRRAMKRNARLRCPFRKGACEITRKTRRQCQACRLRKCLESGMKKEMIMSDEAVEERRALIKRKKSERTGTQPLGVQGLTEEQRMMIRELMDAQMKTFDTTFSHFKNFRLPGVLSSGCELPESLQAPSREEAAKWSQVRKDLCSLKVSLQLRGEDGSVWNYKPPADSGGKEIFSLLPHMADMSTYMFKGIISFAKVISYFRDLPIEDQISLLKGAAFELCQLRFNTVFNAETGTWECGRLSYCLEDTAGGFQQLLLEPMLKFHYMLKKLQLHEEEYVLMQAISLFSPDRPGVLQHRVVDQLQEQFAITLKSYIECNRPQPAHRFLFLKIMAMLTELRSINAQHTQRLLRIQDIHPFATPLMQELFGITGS
Assay: In Vitro Assay
Text: PXR can be determined in an in vitro assay system. Such in vitro assay systems include assay such as the assays as described herein.

Structure (SMILES)	IC50
COc1ccc(Cl)cc1-n1nnc(C(=O)Nc2cc(C(C)(C)C)ccc2OCC(=O)O)c1C [US20250282736, Compound B25]	360 nM
CCCC(CC)Oc1ccc(C(C)(C)C)cc1NC(=O)c1nnn(-c2cc(OC)ccc2OC)c1C (configuration not stated) [US20250282736, Compound J1]	3.8 nM
